Active and inactive are the calls of the source. The rule behind the calls is not given here.

For one assay, the target named is T1, Carbonic anhydrase 2 (Mycobacterium tuberculosis, UniProt P9WPJ9).
T1 sequence (P9WPJ9 whole entry): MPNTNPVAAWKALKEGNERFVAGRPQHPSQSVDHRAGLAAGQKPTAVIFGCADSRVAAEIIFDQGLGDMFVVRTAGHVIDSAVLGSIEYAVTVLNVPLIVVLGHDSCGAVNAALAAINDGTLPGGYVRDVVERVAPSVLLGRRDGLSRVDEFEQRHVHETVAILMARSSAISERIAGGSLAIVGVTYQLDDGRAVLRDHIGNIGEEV

The next assay deals with Carbonic anhydrase 9 (Homo sapiens, UniProt Q16790).
In assay [1] the target is T2, Prostaglandin G/H synthase 2 (Ovis aries) (UniProt P79208).
T2 sequence (whole entry): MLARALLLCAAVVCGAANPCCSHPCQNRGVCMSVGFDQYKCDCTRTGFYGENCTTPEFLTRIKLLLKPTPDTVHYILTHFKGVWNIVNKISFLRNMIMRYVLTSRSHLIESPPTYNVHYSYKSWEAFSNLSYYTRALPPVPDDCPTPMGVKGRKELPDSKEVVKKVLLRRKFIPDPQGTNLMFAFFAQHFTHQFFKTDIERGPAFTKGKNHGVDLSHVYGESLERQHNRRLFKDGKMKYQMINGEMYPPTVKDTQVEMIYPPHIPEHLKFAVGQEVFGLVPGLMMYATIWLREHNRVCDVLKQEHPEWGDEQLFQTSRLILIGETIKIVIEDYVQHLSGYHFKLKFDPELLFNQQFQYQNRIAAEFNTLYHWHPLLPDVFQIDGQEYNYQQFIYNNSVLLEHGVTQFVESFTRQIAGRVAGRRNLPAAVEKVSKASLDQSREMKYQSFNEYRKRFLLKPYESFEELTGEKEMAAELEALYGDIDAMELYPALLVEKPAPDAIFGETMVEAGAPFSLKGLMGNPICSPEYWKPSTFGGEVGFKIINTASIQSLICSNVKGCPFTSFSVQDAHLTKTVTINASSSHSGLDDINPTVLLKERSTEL
As to the kind of experiment: Inhibition of ovine COX2 at 100 uM incubated for 5 mins by colorimetric assay.

In assay [2] the target is T3, PROBABLE TRANSMEMBRANE CARBONIC ANHYDRASE (CARBONATE DEHYDRATASE) (CARBONIC DEHYDRATASE) (Mycobacterium tuberculosis, UniProt P96878).
T3 sequence (P96878 whole entry): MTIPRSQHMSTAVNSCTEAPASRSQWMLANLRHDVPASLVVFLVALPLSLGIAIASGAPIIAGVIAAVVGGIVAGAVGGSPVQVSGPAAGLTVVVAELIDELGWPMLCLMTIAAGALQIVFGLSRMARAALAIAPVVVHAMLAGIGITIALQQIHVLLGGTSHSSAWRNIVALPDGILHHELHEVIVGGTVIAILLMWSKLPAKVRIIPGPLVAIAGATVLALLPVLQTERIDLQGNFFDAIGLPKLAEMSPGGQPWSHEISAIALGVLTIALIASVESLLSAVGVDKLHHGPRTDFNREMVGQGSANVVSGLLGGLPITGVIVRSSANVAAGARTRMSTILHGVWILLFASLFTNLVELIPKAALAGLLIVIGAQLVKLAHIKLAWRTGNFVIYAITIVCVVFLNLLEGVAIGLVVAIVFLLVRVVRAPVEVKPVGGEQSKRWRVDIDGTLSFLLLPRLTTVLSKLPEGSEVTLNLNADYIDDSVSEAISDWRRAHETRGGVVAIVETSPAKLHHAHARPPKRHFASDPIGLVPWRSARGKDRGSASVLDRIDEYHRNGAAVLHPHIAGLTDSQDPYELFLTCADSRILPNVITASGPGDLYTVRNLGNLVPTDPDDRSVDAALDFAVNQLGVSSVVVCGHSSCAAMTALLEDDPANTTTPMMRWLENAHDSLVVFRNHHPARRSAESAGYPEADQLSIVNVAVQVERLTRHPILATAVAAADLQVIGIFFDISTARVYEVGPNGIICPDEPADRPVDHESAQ
Description: Inhibition of Mycobacterium tuberculosis recombinant carbonic anhydrase Rv3273 pre-incubated for 15 mins by stopped-flow CO2 hydration method

In assay [3] the target is T4, Beta-carbonic anhydrase 1 (Mycobacterium tuberculosis, UniProt P9WPJ7).
T4 sequence (P9WPJ7 whole entry): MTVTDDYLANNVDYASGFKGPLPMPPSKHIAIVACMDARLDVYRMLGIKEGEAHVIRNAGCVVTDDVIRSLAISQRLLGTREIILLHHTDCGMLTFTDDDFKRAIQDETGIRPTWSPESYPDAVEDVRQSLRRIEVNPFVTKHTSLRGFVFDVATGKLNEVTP
Description: Inhibition of Mycobacterium tuberculosis recombinant carbonic anhydrase Rv1284 pre-incubated for 15 mins by stopped-flow CO2 hydration method

The target of the next assay is Carbonic anhydrase 3 (Homo sapiens, UniProt P07451).
Sequence of Carbonic anhydrase 3 (P07451 whole entry): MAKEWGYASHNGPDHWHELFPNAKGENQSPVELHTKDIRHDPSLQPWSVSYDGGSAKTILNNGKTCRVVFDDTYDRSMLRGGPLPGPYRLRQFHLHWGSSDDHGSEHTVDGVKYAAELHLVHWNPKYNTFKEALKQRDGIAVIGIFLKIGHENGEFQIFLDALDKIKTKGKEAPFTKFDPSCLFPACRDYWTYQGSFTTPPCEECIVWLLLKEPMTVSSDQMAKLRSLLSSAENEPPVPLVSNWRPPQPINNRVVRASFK

Description for Carbonic anhydrase 2: Inhibition of Mycobacterium tuberculosis recombinant carbonic anhydrase Rv3588c pre-incubated for 15 mins by stopped-flow CO2 hydration method
Description for Carbonic anhydrase 3: Inhibition of human recombinant full length CA3 pre-incubated for 15 mins by stopped-flow CO2 hydration method
Description for Carbonic anhydrase 9: Inhibition of human recombinant CA9 catalytic domain pre-incubated for 15 mins by stopped-flow CO2 hydration method

Regarding `NS(=O)(=O)c1ccc(-n2ncc3c2-c2cccnc2SC3)cc1`, the inhibition constant (Ki) on Carbonic anhydrase 2 amounted to 273 nM; on Carbonic anhydrase 9, 2340 nM; in assay [2], 286 nM; in assay [3], 134 nM. For the same molecule, the inhibition result in assay [1] was “inactive”.
The corresponding values for `NS(=O)(=O)c1ccc(-n2ncc3c2-c2ccc(Cl)cc2SC3)cc1` are 235 nM, 1840 nM, 316 nM, 412 nM and “inactive”.
The corresponding values for `COc1ccc2c(c1)SCc1cnn(-c3ccc(S(N)(=O)=O)cc3)c1-2` are 610 nM, 2180 nM, 750 nM, 870 nM and “inactive”.
Regarding `Cc1ccc2c(n1)SCc1cnn(-c3ccc(S(N)(=O)=O)cc3)c1-2`, the inhibition constant (Ki) on Carbonic anhydrase 2 is 144 nM; in assay [2], 241 nM; in assay [3] it was 115 nM. Moreover, the inhibition entry in assay [1] was “inactive”.
`NS(=O)(=O)c1ccc(-n2ncc3c2-c2ccc(C(F)(F)F)cc2SC3)cc1`: the Ki came out at 357 nM on Carbonic anhydrase 2, 2570 nM at Carbonic anhydrase 9, 238 nM in assay [2] and 613 nM in assay [3]. The inhibition result in assay [1] is “inactive”.
Regarding `Cc1ccc(-c2cc(C(F)(F)F)nn2-c2ccc(S(N)(=O)=O)cc2)cc1` [CELECOXIB], the Ki at Carbonic anhydrase 3 was determined as 7400 nM; in assay [2], 7760 nM.

What is called Ki is a measure of affinity in units of concentration, obtained from inhibition or displacement.

The values are drawn from ChEMBL document CHEMBL2177016 (J Med Chem, 2012).
